Reference: patent publication US9963464B2, “Macrocyclic compounds” (Bayer Pharma Aktiengesellschaft, priority 2014, dated 2018)
Where two headings read alike, the source gives them in different places.

Assays:
CDK2/CycE = biological target: T1, CDK2/CycE (Homo sapiens, UniProt P24941); assay: CDK2/CycE high ATP kinase assay (TR-FRET, Method 2b); type: biochemical; details: 2 mM ATP
T1 construct: GST; purchased ProQinase GmbH (Freiburg, Germany); host or cells: insect cells (Sf9)
Procedure: 2b. CDK2/CycE High ATP Kinase Assay:
CDK2/CycE-inhibitory activity of compounds of the present invention at 2 mM adenosine-tri-phosphate (ATP) was quantified employing the CDK2/CycE TR-FRET (TR-FRET=Time Resolved Fluorescence Resonance Energy Transfer) assay as described in the following paragraphs.
Recombinant fusion proteins of GST and human CDK2 and of GST and human CycE, expressed in insect cells (Sf9) and purified by Glutathion-Sepharose affinity chromatography, were purchase from ProQinase GmbH (Freiburg, Germany). As substrate for the kinase reaction biotinylated peptide biotin-Ttds-YISPLKSPYKISEG (C-terminus in amid form) was used which can be purchased e.g. from the company JERINI peptide technologies (Berlin, Germany).
For the assay 50 nl of a 100 fold concentrated solution of the test compound in DMSO was pipetted into a black low volume 384 well microtiter plate (Greiner Bio-One, Frickenhausen, Germany), 2 μl of a solution of CDK2/CycE in aqueous assay buffer [50 mM Tris/HCl pH 8.0, 10 mM MgCl2, 1.0 mM dithiothreitol, 0.1 mM sodium ortho-vanadate, 0.01% (v/v) Nonidet-P40 (Sigma)] were added and the mixture was incubated for 15 min at 22° C. to allow pre-binding of the test compounds to the enzyme before the start of the kinase reaction. […] The concentration of CDK2/CycE was adjusted depending of the activity of the enzyme lot and was chosen appropriate to have the assay in the linear range, typical concentrations were in the range of 15 ng/ml. The reaction was stopped by the addition of 5 μl of a solution of TR-FRET detection reagents (0.2 μM streptavidine-XL665 [Cisbio Bioassays, Codolet, France] and 1 nM anti-RB(pSer807/pSer811)-antibody from BD Pharmingen [#558389] and 1.2 nM LANCE EU-W1024 labeled anti-mouse IgG antibody [Perkin-Elmer, product no. AD0077, as an alternative a Terbium-cryptate-labeled anti-mouse IgG antibody from Cisbio Bioassays can be used]) in an aqueous EDTA-solution (100 mM EDTA, 0.2% (w/v) bovine serum albumin in 100 mM HEPES pH 7.5).
The resulting mixture was incubated 1 h at 22° C. to allow the formation of complex between the phosphorylated biotinylated peptide and the detection reagents. Subsequently the amount of phosphorylated substrate was evaluated by measurement of the resonance energy transfer from the Eu-chelate to the streptavidine-XL. Therefore, the fluorescence emissions at 620 nm and 665 nm after excitation at 350 nm were measured in a TR-FRET reader, e.g. a Rubystar (BMG Labtechnologies, Offenburg, Germany) or a Viewlux (Perkin-Elmer). The ratio of the emissions at 665 nm and at […] was taken as the measure for the amount of phosphorylated substrate. The data were normalised (enzyme reaction without inhibitor=0% inhibition, all other assay components but no enzyme=100% inhibition).

HeLa cells = assay: Proliferation assay HeLa; type: cell-based, human; details: 4 days, crystal violet, read-out: Inhibition of HeLa cell proliferation IC50
Procedure: Cultivated tumour cells (HeLa, human cervical tumour cells, ATCC CCL-2; NCI-H460, human non-small cell lung carcinoma cells, ATCC HTB-177; A2780, human ovarian carcinoma cells, ECACC #93112519; DU 145, hormone-independent human prostate carcinoma cells, ATCC HTB-81; HeLa-MaTu-ADR, multidrug-resistant human cervical carcinoma cells, EPO-GmbH Berlin; Caco-2, human colorectal carcinoma cells, ATCC HTB-37; B16F10, mouse melanoma cells, ATCC CRL-6475) were plated at a density of 5,000 cells/well (DU145, HeLa-MaTu-ADR), 3,000 cells/well (NCI-H460, HeLa), 2,500 cells/well (A2780), 1,500 cells/well (Caco-2), or 1,000 cells/well (B16F10) in a 96-well multititer plate in 200 μL of their respective growth medium supplemented 10% fetal calf serum. After 24 hours, the cells of one plate (zero-point plate) were stained with crystal violet (see below), while the medium of the other plates was replaced by fresh culture medium (200 μl), to which the test substances were added in various concentrations (0 μM, as well as in the range of 0.001-10 μM). The cells were incubated for 4 days in the presence of test substances. Cell proliferation was determined by staining the cells with crystal violet: the cells were fixed by adding 20 μl/measuring point of an 11% glutaric aldehyde solution for 15 minutes at room temperature. After three washing cycles of the fixed cells with water, the plates were dried at room temperature. The cells were stained by adding 100 μl/measuring point of a 0.1% crystal violet solution (pH 3.0). After three washing cycles of the stained cells with water, the plates were dried at room temperature. The dye was dissolved by adding 100 μl/measuring point of a 10% acetic acid solution. The extinction was determined by photometry at a wavelength of 595 nm. The change of cell number, in percent, was calculated by normalization of the measured values to the extinction values of the zero-point plate (=0%) and the extinction of the untreated (0 μm) cells (=100%). The IC50 values (inhibitory concentration at 50% of maximal effect) were determined by means of a 4 parameter fit. Non-adherent MOLM-13 human acute myeloid leukemia cells (DSMZ ACC 554) were seeded at a density of 5,000 cells/well in a 96-well multititer plate in 100 μL of growth medium supplemented 10% fetal calf serum. After 24 hours, cell viability of one plate (zero-point plate) was determined with the Cell Titre-Glo Luminescent Cell Viability Assay (Promega), while 50 μL of test compound containing medium was added to the wells of the other plates (final concentrations in the range of 0.001-1 μM and DMSO controls). Cell viability was assessed after 72-hour exposure with the Cell Titre-Glo Luminescent Cell Viability Assay (Promega). IC50 values (inhibitory concentration at 50% of maximal effect) were determined by means of a 4 parameter fit on measurement data which were normalized to vehicle (DMSO) treated cells (=100%) and measurement readings taken immediately before compound exposure (=0%).

Compound	IC50 (CDK2/CycE) [nM]	IC50 (HeLa cells; Homo sapiens, HeLa, 96 h) [nM]	IC50 (HeLa cells; trifluoroacetate) [nM]	IC50 (HeLa cells) [nM]
({[15,19-difluoro-3,4-dihydro-2H,11H-10,6-(azeno)-12,16-(metheno)-1,5,11,13-benzodioxadiazacyclooctadecin-8-yl]methyl}sulfonyl)acetic acid [Example 27]	6.3			1050
CS(=N)(=O)Cc1cc2cc(c1)OCCCOc1cc(F)ccc1-c1nc(ncc1F)N2 (racemic) [Example 15, (rac)-15,19-difluoro-8-[(S-methylsulfonimidoyl)methyl]-3,4-dihydro-2H,11H-12,16-(azeno)-10,6-(metheno)-1,5,11,13-benzodioxadiazacyclooctadecine]	237	9		
CS(=N)(=O)Cc1cc2nc(c1)OCCCCOc1cc(F)ccc1-c1cc(ncc1F)N2 (racemic) [Example 14, (rac)-16,20-difluoro-9-[(S-methylsulfonimidoyl)methyl]-2,3,4,5-tetrahydro-12H-11,7-(azeno)-13,17-(metheno)-1,6,12,14-benzodioxadiazacyclononadecine]	162	11		
CS(=O)(Cc1cc2nc(c1)OCCCOc1cc(F)ccc1-c1cc(ncc1F)N2)=NS(=O)(=O)CCN.O=C(O)C(F)(F)F (racemic) [Example 24, (rac)-2-{[{[15,19-difluoro-3,4-dihydro-2H,11H-10,6-(azeno)-12,16-(metheno)-1,5,11,13-benzodioxadiazacyclooctadecin-8-yl]methyl}(methyl)oxido-λ^6-sulfanylidene]sulfamoyl}ethanaminium trifluoroacetate]	166		82	
CSCc1cc2cc(c1)OCCCOc1cc(F)ccc1-c1nc(ncc1F)N2 [Example 2, 15,19-Difluoro-8-[(methylsulfanyl)methyl]-3,4-dihydro-2H,11H-12,16-(azeno)-10,6-(metheno)-1,5,11,13-benzodioxadiazacyclooctadecine]	640	62		
C[S+]([O-])Cc1cc2nc(c1)OCCOc1cc(F)ccc1-c1cc(ncc1F)N2 (racemic) [Example 10, (rac)-14,18-difluoro-7-[(methylsulfinyl)methyl]-2,3-dihydro-10H-9,5-(azeno)-11,15-(metheno)-1,4,10,12-benzodioxadiazacycloheptadecine]	3500	195		
CN=S(C)(=O)Cc1cc2nc(c1)OCCCOc1cc(F)ccc1-c1cc(ncc1F)N2 (racemic) [Example 19, (rac)-8-[(N,S-dimethylsulfonimidoyl)methyl]-15,19-difluoro-3,4-dihydro-2H,11H-10,6-(azeno)-12,16-(metheno)-1,5,11,13-benzodioxadiazacyclooctadecine]	159	31		
CS(=O)(Cc1cc2nc(c1)OCCCOc1cc(F)ccc1-c1cc(ncc1F)N2)=NS(=O)(=O)CCN (racemic) [Example 23, (rac)-2-amino-N-[{[15,19-difluoro-3,4-dihydro-2H,11H-10,6-(azeno)-12,16-(metheno)-1,5,11,13-benzodioxadiazacyclooctadecin-8-yl]methyl}(methyl)oxido-λ^6-sulfanylidene]ethanesulfonamide]	272	57		
CS(=O)(Cc1cc2cc(c1)OCCCOc1cc(F)ccc1-c1nc(ncc1F)N2)=NC(=O)C(F)(F)F (racemic) [Example 16, (rac)-N-[{[15,19-difluoro-3,4-dihydro-2H,11H-12,16-(azeno)-10,6-(metheno)-1,5,11,13-benzodioxadiazacyclooctadecin-8-yl]methyl}(methyl)oxido-λ^6-sulfanylidene]-2,2,2-trifluoroacetamide]	670	10		
CSCc1cc2nc(c1)OCCOc1cc(F)ccc1-c1cc(ncc1F)N2 [Example 9, 14,18-Difluoro-7-[(methylsulfanyl)methyl]-2,3-dihydro-10H-9,5-(azeno)-11,15-(metheno)-1,4,10,12-benzodioxadiazacycloheptadecine]	> 20000			

Continued, in another order:

IC50 (CDK2/CycE) [nM]	IC50 (HeLa cells; Homo sapiens, HeLa, 96 h) [nM]	IC50 (HeLa cells; trifluoroacetate) [nM]	Compound	IC50 (HeLa cells) [nM]
63.2	10		CC(=O)N=S(C)(=O)Cc1cc2nc(c1)OCCCOc1cc(F)ccc1-c1cc(ncc1F)N2 (racemic) [Example 18, (rac)-N-[{[15,19-difluoro-3,4-dihydro-2H,11H-10,6-(azeno)-12,16-(metheno)-1,5,11,13-benzodioxadiazacyclooctadecin-8-yl]methyl}(methyl)oxido-λ^6-sulfanylidene]acetamide]	
74.8	11		CS(=O)(Cc1cc2nc(c1)OCCCOc1cc(F)ccc1-c1cc(ncc1F)N2)=NC(=O)OCCCl (racemic) [Example 21, (rac)-2-chloroethyl [{[15,19-difluoro-3,4-dihydro-2H,11H-10,6-(azeno)-12,16-(metheno)-1,5,11,13-benzodioxadiazacyclooctadecin-8-yl]methyl}(methyl)oxido-λ^6-sulfanylidene]carbamate]	
18	14		CS(=O)(Cc1cc2nc(c1)OCCCOc1cc(F)ccc1-c1cc(ncc1F)N2)=NC(=O)OCCN (racemic) [Example 25, (rac)-2-aminoethyl [{[15,19-difluoro-3,4-dihydro-2H,11H-10,6-(azeno)-12,16-(metheno)-1,5,11,13-benzodioxadiazacyclooctadecin-8-yl]methyl}(methyl)oxido-λ^6-sulfanylidene]carbamate]	
35.9	11		CCNC(=O)N=S(C)(=O)Cc1cc2nc(c1)OCCCOc1cc(F)ccc1-c1cc(ncc1F)N2 (racemic) [Example 17, (rac)-1-[{[15,19-difluoro-3,4-dihydro-2H,11H-10,6-(azeno)-12,16-(metheno)-1,5,11,13-benzodioxadiazacyclooctadecin-8-yl]methyl}(methyl)oxido-λ^6-sulfanylidene]-3-ethylurea]	
113			C[S+]([O-])Cc1cc2nc(c1)OCCCCOc1cc(F)ccc1-c1cc(ncc1F)N2 (racemic) [Example 13, (rac)-16,20-difluoro-9-[(methylsulfinyl)methyl]-2,3,4,5-tetrahydro-12H-11,7-(azeno)-13,17-(metheno)-1,6,12,14-benzodioxadiazacyclononadecine]	
